Test results published in patent US7563819B1, “Esters of 5-aminolevulinic acid as photosensitizing agents in photochemotherapy” (Photocure ASA, priority 2000, dated 2009).
Entries after “also recorded” stand apart in the source; their conditions may differ.

Columns and labels:
murine skin = experiment: Porphyrin formation (skin fluorescence) after topical application onto murine skin; format: in vivo, Female Balb/c athymic nude mice; details: topical cream on nude mouse skin, 1% (w/w), except compounds 16, 29, 30, 31 at 3% and 17-19 at 10%
Experimental: The test compounds were formulated in Unguentum Merck (cream base available from Merck, consisting of silicon dioxide, paraffin liq., vaseline, album, cetostearol, polysorbat. 40, glycerol monostearate, Miglyol®812 (a mixture of plant fatty acids), polypropyleneglycol, and purified water) to the desired concentration. Concentrations are given as % (w/w) calculated as hydrochlorides. The formulations were prepared the day before the experiment commenced and stored in the refrigerator until the day of use.
Female Balb/c athymic nude mice, weighing about 22 g, obtained from the Department of Laboratory Animals, The Norwegian Radium Hospital (Montebello, Oslo, Norway) were used in the studies.
Three mice per group was used. Each mouse received 0.05-0.1 g of formulation topically applied at the right flank of the body, evenly distributed and covered with a dressing (Opsite Flexigrid; Smith and Nephew Medical Ltd., Hull, England). The fiber point measuring device consisted of a bundle of optical fibers connected to a spectrofluorimeter which produced the excitation light of 407 nm. The excitation light, which is able to penetrate 0.1-0.5 mm into the tissue, was led through half of the fibers to the mouse skin. The resulting emission fluorescence spectrum (550-750) nm was collected and led through the remaining fibers into a photomultiplier for quantification.
After application of the cream formulation, the fluorescence spectrum from porphyrins in the skin was measured by the fiber-optical method at different intervals of time after administration.
The fluorescence intensity varied from experiment to experiment. Therefore 1% (w/w) hexyl 5-aminolevulinate-HCl was included in each experiment as an internal control.

WiDr cells = experiment: Measurement of porphyrin formation in cell culture in vitro; format: cell-based; details: 4 h incubation; for POTENCY (Relative ability to induce porphyrin formation): 0.001-1 mM, relative to ALA = 1; for potency in inducing cellular porphyrin formation relative to ALA: fold versus ALA; for ALA concentration giving the same porphyrin formation as 0.001 mM ester: ester at 0.001 mM
Experimental: The test compounds were dissolved in DMSO to a concentration of 100 mM (stock solution). Appropriate concentrations were obtained by dilution of the stock solutions with phosphate-buffered saline (PBS) or culture medium.
WiDr cells, derived form a primary adenocarcinoma of the rectosigmoid colon, were subcultured in RPMI 1640 medium (Gibco) containing 10% fetal calf serum, 100 U/ml penicillin, 100 μg/ml streptomycin and 1% glutamine. Cells were split 1:100 twice a week, and maintained at 37° C. and 5. % CO2 in a humid environment.
5×10^5 WiDr cells in 2 ml of RPMI medium as described in the previous paragraph were added to each well in 6-well plastic tissue-culture plates (Nunc) and left for 48 hr at 37° C. and 5% CO2 in a humid environment for proper attachment to the substratum. The cells were then washed twice with RPMI 1640-medium without serum, followed by the addition to the wells of the appropriate dilutions of the test compounds in 2 ml of fresh culture medium to final concentrations of 0.001, 0.01, 0.1 and 1 mM in duplicate. The cells were incubated at 37° C. for four hours.
After treatment as described in the paragraph “treatment conditions” the cells were washed twice with PBS and brought into a solution of 1M HClO4 in 50% MeOH by scraping the cells off the substratum by means of a Costar cell scraper. Cell debris was removed by centrifugation. The porphyrin content of each sample was determined fluorometrically using a Perkin Elmer LS50B spectrofluorimeter (excitation at 407 nm, emission was measured at 606 nm using a long pass cut-off filter (530 nm) on the emission side). The fluorescence in each sample was calculated relative to the protein content in control cells as measured by the Bradford method.

Row | SMILES | skin fluorescence level after topical application (murine skin) | POTENCY (Relative ability to induce porphyrin formation) (WiDr cells) | potency in inducing cellular porphyrin formation relative to ALA (WiDr cells) | further results
1 | Cl.NCC(=O)CCC(=O)OCc1ccc(Cl)cc1 [Compound 19, 4-Chlorobenzyl 5-amino-4-oxopentanoate Hydrochloride] | high fluorescence levels |  |  | 
2 | CCCCCCOC(=O)CCC(=O)CN.Cl [Compound 6, hexyl 5-aminolevulinate-HCl, reference compound] | highest fluorescence; also recorded: high and similar levels of fluorescence | 100 | approximately 100 times | 
3 | Cl.NCC(=O)CCC(=O)OCc1ccccc1F [Compound 17, 2-Fluorobenzyl 5-amino-4-oxopentanoate Hydrochloride] | intermediate/high activities |  |  | 
4 | CCCC(CC)OC(=O)CCC(=O)CN.Cl (stereo not shown) [Compound 12, 3-Hexyl 5-amino-4-oxopentanoate Hydrochloride] | gave porphyrin formation |  |  | 
5 | Cl.NCC(=O)CCC(=O)OCc1ccc(C(F)(F)F)cc1 [Compound 9, 4-(Trifluoromethyl)benzyl 5-amino-4-oxopentanoate Hydrochloride] | high fluorescence levels | 200 | approximately 200 times | 
6 | Cl.NCC(=O)CCC(=O)OCCc1ccccc1 [Compound 5, 2-Phenylethyl 5-amino-4-oxopentanoate Hydrochloride] |  | 500 |  | efficiency in inducing cellular porphyrin synthesis compared with ALA (WiDr cells): considerably more efficient than ALA; ALA concentration giving the same porphyrin formation as 0.001 mM ester (WiDr cells): 0.4 mM; skin fluorescence level after topical application (murine skin; Hydrochloride): low levels of fluorescence; skin fluorescence level after topical application (murine skin; listed as 2-phenyl-ethyl 5-aminolevulinate, Hydrochloride): relatively modest fluorescence levels
7 | Cl.NCC(=O)CCC(=O)OCc1ccc(-c2ccccc2)cc1 [Compound 27, 4-Diphenylmethyl 5-amino-4-oxopentanoate Hydrochloride] | relatively low fluorescence |  |  | 
8 | NCC(=O)CCC(=O)O [ALA, 5-aminolevulinic acid] |  | 1 |  | 
9 | Cl.Cl.NCC(=O)CCC(=O)OCc1cccnc1 [Compound 26, 3-Pyridinylmethyl 5-amino-4-Oxopentanoate Dihydrochloride] | intermediate fluorescence |  |  | 
10 | CCCC(C)COC(=O)CCC(=O)CN.Cl (stereo not shown) [Compound 13, 2-Methyl-1-pentyl 5-amino-4-oxopentanoate Hydrochloride] | gave porphyrin formation |  |  | 
11 | CC(=O)OC(C)OC(=O)NCC(=O)CCC(=O)OCc1ccccc1 (stereo not shown) [Compound 30, Benzyl 5-[[1-(acetyloxy)ethoxy]carbonyl]amino-4-oxopentanoate] | intermediate/high fluorescence |  |  | 
12 | CC(C)c1ccc(COC(=O)CCC(=O)CN)cc1.Cl [Compound 2, 4-Isopropylbenzyl 5-amino-4-oxopentanoate Hydrochloride] | intermediate levels of fluorescence | 200 | approximately 200 times | 
13 | Cl.NCC(=O)CCC(=O)OCc1ccc(F)cc1 [Compound 15, 4-Fluorobenzyl 5-amino-4-oxopentanoate Hydrochloride] | Slightly lower levels |  |  | 
14 | CC(C)CCCOC(=O)CCC(=O)CN.Cl [Compound 8, 4-Methyl-1-pentyl 5-amino-4-oxopentanoate Hydrochloride] | high fluorescence levels | 100 | approximately 100 times | 
15 | Cl.NCC(=O)CCC(=O)OCc1ccc([N+](=O)[O-])cc1 [Compound 11, 4-Nitrobenzyl 5-amino-4-oxopentanoate Hydrochloride] | high levels of fluorescence | 200 | approximately 200 times | 
16 | CC(C)(C)c1ccc(COC(=O)CCC(=O)CN)cc1.Cl [Compound 10, 4-t-Butylbenzyl 5-amino-4-oxopentanoate Hydrochloride] | Intermediate fluorescence levels | 200 | approximately 200 times | 
17 | Cl.NCC(=O)CCC(=O)OCc1c(F)c(F)c(F)c(F)c1F [Compound 18, 2,3,4,5,6-Pentafluorobenzyl 5-amino-4-oxopentanoate Hydrochloride] | intermediate/high activities |  |  | 
18 | Cc1ccc(COC(=O)CCC(=O)CN)cc1.Cl [Compound 3, 4-Methylbenzyl 5-amino-4-oxopentanoate Hydrochloride] | high and similar levels of fluorescence | 200 | approximately 200 times | 
19 | Cl.NCC(=O)CCC(=O)OCCCCc1ccccc1 [Compound 14, 4-Phenyl-1-butyl 5-amino-4-oxopentanoate Hydrochloride] | only low fluorescence levels |  |  | 
20 | Cl.NCC(=O)CCC(=O)OC1CCCCC1 [Compound 7, Cyclohexyl 5-amino-4-oxopentanoate Hydrochloride] | low levels of fluorescence | 1 |  | efficiency in inducing porphyrin formation compared with ALA (WiDr cells; at higher concentrations): less effective than ALA; efficiency in inducing porphyrin formation compared with ALA (WiDr cells; at low concentrations): only slightly more efficient than ALA
21 | Cl.NCC(=O)CCC(=O)OCc1ccccc1 [Compound 4, Benzyl 5-amino-4-oxopentanoate hydrochloride] | high levels of fluorescence | 100-600 |  | efficiency in inducing cellular porphyrin synthesis compared with ALA (WiDr cells): considerably more efficient than ALA; ALA concentration giving the same porphyrin formation as 0.001 mM ester (WiDr cells): 0.6 mM
22 | COc1ccc(COC(=O)CCC(=O)CN)cc1.Cl [Compound 28, 4-Methoxybenzyl 5-amino-4-oxopentanoate Hydrochloride] | intermediate fluorescence |  |  | 
23 | CCCCC(C)OC(=O)CCC(=O)CN.Cl (stereo not shown) [Compound 1, 1-methyl-pentyl 5-amino-4-oxopentanoate Hydrochloride] | intermediate fluorescence levels | 3 |  | efficiency in inducing porphyrin formation compared with ALA (WiDr cells; at low concentrations): only slightly better than ALA
